According to PMC9926234, “Iterative computational design and crystallographic screening identifies potent inhibitors targeting the Nsp3 macrodomain of SARS-CoV-2” (Proceedings of the National Academy of Sciences of the …, 2023):
“And” between values parts separate entries of the source, which are not always exact repeats. Identical values can stand only once. Like-named read-outs stand apart in the source and are kept apart here.

Experiments:
[1] = test system: P-glycoprotein (human MDR1); experiment: in vitro; conditions: dog
Description: Permeability of compounds was assessed using canine MDR1 knockout and human MDR1 knockin MDCKII cells (MDR1-MDCKII) (Sigma-Aldrich, MTOX1303) in confluent monolayers expressing P-glycoprotein (P-gp) at Enamine biological services Bienta LTD (Kyiv, Ukraine).
Canine MDR1 knockout, human MDR1 knockin MDCKII cell (MDR1-MDCKII) (Sigma-Aldrich,
MTOX1303) suspension (400 μl) was added to each well of high throughput screening multiwell
insert system plates. Test compounds were prepared as 20 mM DMSO stocks. The test compound
(300 µl) was dissolved in transport buffer (9.5 g/l Hanks’ balanced salt solution and 0.35 g/l NaHCO3
wells whereas 1000 µl of transport buffer was added to transport analysis plate wells in order to
determine apical (A) to basolateral (B) transport. Basolateral to apical transport was measured by
adding 1000 µl of the test compound solution into the transport analysis plate wells whereas 300
µl of buffer was used to fill the filter plate wells.
were taken from the donor and receiver compartments for LC-MS/MS analysis. Samples were
mixed with acetonitrile followed by protein sedimentation by centrifugation at 1000 rpm for 10 min.
HPLC coupled with tandem mass spectroscopy was performed using the Shimadzu Prominence
HPLC system coupled with the API 5000 (PE Sciex) spectrometer. Both the positive and negative
ion modes of the TurboIonSpray ion source were used. The apparent permeability (Papp) was
computed using the equation 1, where VA is the volume of transport buffer in acceptor wel, Area is
the surface area of the insert, Time is the assay time, [drug]acc is the peak area of test compound
in acceptor well, and [drug]initial,d is the initial amount of the test compound in a donor well.

[2] = target: T1, MacroD2 (Homo sapiens, UniProt A1Z1Q3); experiment: adapted HTRF-based peptide displacement assay (off-target); type: binding
T1 construct: MacroD2_HTRF; HTRF assay; pET22b(+); His6, TEV, Avi; made in house
T1 sequence (A1Z1Q3 with tags, fused parts or gaps): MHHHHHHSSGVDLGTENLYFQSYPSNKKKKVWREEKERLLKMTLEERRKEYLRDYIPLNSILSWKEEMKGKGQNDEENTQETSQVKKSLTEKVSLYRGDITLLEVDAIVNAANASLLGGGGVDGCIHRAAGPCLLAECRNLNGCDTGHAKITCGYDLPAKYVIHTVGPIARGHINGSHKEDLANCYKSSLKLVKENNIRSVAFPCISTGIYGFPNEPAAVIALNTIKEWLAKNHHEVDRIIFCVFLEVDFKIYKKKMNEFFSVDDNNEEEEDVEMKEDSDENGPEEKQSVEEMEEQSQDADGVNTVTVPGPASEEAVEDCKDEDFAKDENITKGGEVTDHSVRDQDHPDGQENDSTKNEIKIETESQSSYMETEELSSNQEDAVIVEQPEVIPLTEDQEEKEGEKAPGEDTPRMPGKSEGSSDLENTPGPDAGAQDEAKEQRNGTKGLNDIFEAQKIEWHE

[3] = target: T2, SARS-CoV-2 NSP3 Mac1 (Severe acute respiratory syndrome coronavirus 2, UniProt P0DTD1); type: binding; conditions: for Refined occupancy: ligand occupancy after refinement (phenix.refine); for HIT*: true hit = binding in crystallographic soaking or the HTRF-based binding assay
[4] = target: T2, SARS-CoV-2 NSP3 Mac1; experiment: biochemical; type: binding; conditions: for Ki: read-out: Ki***
[5] = target: T3, TARG1 (Homo sapiens, UniProt Q9Y530); experiment: adapted HTRF-based peptide displacement assay (off-target); type: binding
T3 construct: Targ1_HTRF; HTRF assay; pET22b(+); His6, TEV; 1-153; made in house
T3 sequence (Q9Y530 with tags, fused parts or gaps): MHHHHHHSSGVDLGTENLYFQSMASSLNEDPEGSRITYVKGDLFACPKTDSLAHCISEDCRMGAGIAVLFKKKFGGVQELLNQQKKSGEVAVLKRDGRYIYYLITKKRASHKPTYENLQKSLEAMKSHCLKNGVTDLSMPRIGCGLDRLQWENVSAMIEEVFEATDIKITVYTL

[6] = test system: SARS-CoV-2 NSP3 Mac1; experiment: Overall hit call (binding in crystallographic soaking or the HTRF-based binding assay)
Description: Supplement pnas.2212931120.sd01.xlsx, sheet "Compound Summary" | column: HIT*

[7] = target: T2, SARS-CoV-2 NSP3 Mac1; parameters: contains a conserved macrodomain enzyme (Mac1); Differential scanning fluorimetry of Mac1, maximum thermal upshift; conditions: maximum shift over tested concentrations; binder
[8] = target: T2, SARS-CoV-2 NSP3 Mac1; type: binding; parameters: contains a conserved macrodomain enzyme (Mac1); conditions: for Spearman est (compound concentration vs apparent Tm): DSF dose responsiveness, 1 µM nsp3 mac1, adj p given; for DSF max dTma: maximal thermal upshift
Outline: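 ΔTma values are thermal shifts relative to a co-located DMSO-only control, read with 5 µM Fluorescent Yellow dye. Each compound was tested in triplicate over seven concentrations (two-fold steps, top 1,000 or 100 μM). Spearman correlation of concentration versus ΔTma tested whether the shift was dose-responsive.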

[9] = PanDDA event map, 1 minus background density correction, crystal soaking of Mac1
[10] = HTRF ADPr-peptide displacement from SARS-CoV-2 Mac1, read-out: IC50
[11] = PanDDA 1-BDC value of the event, crystal soak, compound concentration 100 mM, per dataset
[12] = crystal soak, compound concentration 100 mM, per dataset
[13] = ligand modeled from this dataset, compound concentration 100 mM
[14] = Ki estimation from HTRF-derived IC50, Cheng-Prusoff, peptide 400nM, Kd 2.68µM
[15] = ligand modeled from this dataset, compound concentration 100 mM, Echo dispense volume 40 or 80 nl

## O=C(Nc1ccc(C(=O)NC2c3cccc(O)c3CC2C(=O)O)cc1)NC1CC1 (stereo not drawn) [Z8539]
[1]; MDCK-MDR1, pH 7.4
  Papp A→B at 90 min, 10 µM: 1.1 ± 0.1 ×10⁻⁶ cm/s
  Papp B→A at 90 min, 10 µM: 0.5 ×10⁻⁶ cm/s
[1]; MDCK-MDR1, pH 7.4, cell permeability, MDCK cells, direction not given
  Papp at 90 min, 10 µM: 1.1 ×10⁻⁶ cm/s

## Fc1ccc2c(c1)[nH]c1ncnc(N3CCOC(c4nnn[nH]4)C3)c12 (stereo not drawn) [LL114_0008]
[2]; compound at 50 µM
  displacement of the ADPr-conjugated peptide (off-target activity): showed measurable peptide displacement
[3]; [9]
  1-BDC (PanDDA): 0.25
[3]; PanDDA event map, crystal soak, Compound_concentration 100 mM, Echo_dispense_volume 40 nl
  1-BDC: 0.25
[3]; crystal soak, Compound_concentration 100 mM, Echo_dispense_volume 40 nl, PanDDA run (background map) dmso_34, nohits_35 or nohits_62
  PanDDA hit?: TRUE
[3]; ligand modeled, crystal soak, Compound_concentration 100 mM, Echo_dispense_volume 40 nl
  Modeled?: TRUE
[3]; crystal soaking of Mac1
  Refined occupancy: 50
[4]; HTRF ADPr-conjugated peptide displacement, read-out: IC50
  IC50: 17.2 µM
[4]; [10]
  IC50: 17 µM
[4]
  Ki: 15 µM
[5]; compound at 50 µM
  displacement of the ADPr-conjugated peptide (off-target activity): showed measurable peptide displacement
[6]
  HIT*: Y

## O=C1CCCC1Nc1ncnc2[nH]c3cc(F)ccc3c12 (stereo not drawn) [LRH-0008]
[2]; compound at 160 µM
  binding / activity against MacroD2: neither neutral compounds LRH-0003 and LRH-0008 had measurable binding
[4]; [10]
  IC50: 13.4 µM
[4]
  Ki: 11.7 µM
[5]; compound at 160 µM
  binding / activity against TARG1: neither neutral compounds LRH-0003 and LRH-0008 had measurable binding
[6]
  HIT*: Y

## O=C(O)C1(F)CN(c2cc(Nc3ccccc3)ncn2)CC12CCC2 (stereo not drawn) [LL1_0025]
[7]
  DSF max dTma: 1.36 °C
[3]; [11]
  1-BDC: 0.12
[3]; [9]
  1-BDC (PanDDA): 0.14
[3]; [12]
  PanDDA hit?: TRUE
[3]; [13]
  Modeled?: TRUE
[3]; crystal soaking of Mac1
  Refined occupancy: 28
[3]
  HIT*: Y
[4]; HTRF, read-out: IC50
  IC50: 121 µM
[4]; [14]
  Ki: 106 µM
[8]
  Spearman est (compound concentration vs apparent Tm): 0.71
  DSF max dTma: 1.36 ˚C

## O=C(Nc1ccc(C(=O)N[C@H]2c3cccc(O)c3C[C@H]2C(=O)O)cc1)NC1CC1 [Z8601]
[2]; compound at 50 µM
  displacement of the ADPr-conjugated peptide (off-target activity): no displacement
[2]; compound at 1 mM
  displacement of the ADPr-conjugated peptide (off-target activity): approximately 50%
[5]; compound at 50 µM
  displacement of the ADPr-conjugated peptide (off-target activity): no displacement
[5]; compound at 1 mM
  displacement of the ADPr-conjugated peptide (off-target activity): approximately 50%

## O=C(Nc1ccc(C(=O)NC2c3cccc(O)c3CC2C(=O)O)c(O)c1)NC1CC1 (stereo not drawn) [Z8539_0072]
[2]; compound at 50 µM
  displacement of the ADPr-conjugated peptide (off-target activity): did not show any off-target activity
[2]; compound at 1 mM
  displacement of the ADPr-conjugated peptide (off-target activity): did not show any off-target activity
[3]; PanDDA event map 1-BDC, crystal soak, Compound_concentration 100 mM, PanDDA run dmso_34 or nohits_35 per dataset
  1-BDC: 0.24
[3]; [9]
  1-BDC (PanDDA): 0.24
[3]; crystal soak, Compound_concentration 100 mM, Echo dispense 40 nl, PanDDA run dmso_34 or nohits_35 per dataset
  PanDDA hit?: TRUE
[3]; ligand modeled in this dataset, crystal soak, Compound_concentration 100 mM
  Modeled?: TRUE
[3]; crystal soaking of Mac1
  Refined occupancy: 48
[3]
  HIT*: Y
[4]; HTRF, Mac1, read-out: affinity
  IC50: 0.43 µM
[4]; IC50, HTRF ADPr-peptide displacement from SARS-CoV-2 Mac1
  IC50: 0.4 µM
[4]; [14]
  Ki: 0.3 µM
[4]; affinity, HTRF
  improvement compared to the best starting fragment: > 400 fold
[5]; compound at 50 µM
  displacement of the ADPr-conjugated peptide (off-target activity): did not show any off-target activity
[5]; compound at 1 mM
  displacement of the ADPr-conjugated peptide (off-target activity): did not show any off-target activity

## CS(=O)(=O)C1CCCN(c2ncnc3[nH]c4cc(F)ccc4c23)C1 (stereo not drawn) [LL1_0027]
[7]
  DSF max dTma: 0.8 °C
[3]; [11]
  1-BDC: 0.09
[3]; [9]
  1-BDC: 0.06
[3]; [12]
  PanDDA hit?: TRUE
[3]; [15]
  Modeled?: TRUE
[3]; crystal soaking of Mac1
  Refined occupancy: 12
[3]
  HIT*: Y
[8]
  Spearman est (compound concentration vs apparent Tm): 0.41
  DSF max dTma: 0.8 ˚C

## Cc1noc(CC2CCCN(c3ncnc4[nH]c5cc(F)ccc5c34)C2)n1 (stereo not drawn) [LL1_0005]
[7]
  DSF max dTma: 0.6 °C
[3]; [9]
  1-BDC: 0.11
[3]; crystal soaking of Mac1
  Refined occupancy: 22
[3]
  HIT*: Y
[8]
  Spearman est (compound concentration vs apparent Tm): 0.01
  DSF max dTma: 0.6 ˚C

## O=C(O)CCC1CCCN(c2ncnc3[nH]c4cc(F)ccc4c23)C1 (stereo not drawn) [LL1_0018]
[7]
  DSF max dTma: 2.71 °C
[3]; [9]
  1-BDC (PanDDA): 0.1
[3]; [13]
  Modeled?: TRUE
[3]; crystal soaking of Mac1
  Refined occupancy: 20
[3]
  HIT*: Y
[4]; HTRF, read-out: IC50
  IC50: 25.8 µM
[4]; [14]
  Ki: 22.4 µM
[8]
  Spearman est (compound concentration vs apparent Tm): 0.96
  DSF max dTma: 2.71 ˚C

## O=c1[nH]nc(C2CCCN(c3ncnc4[nH]c5cc(F)ccc5c34)C2)o1 (stereo not drawn) [LL1_0017]
[7]
  DSF max dTma: 0.5 °C
[3]; [9]
  1-BDC (PanDDA): 0.09
[3]; [13]
  Modeled?: TRUE
[3]; crystal soaking of Mac1
  Refined occupancy: 18
[3]
  HIT*: Y
[8]
  Spearman est (compound concentration vs apparent Tm): 0.18
  DSF max dTma: 0.5 ˚C

## O=C(O)CC1CN(c2ncnc3[nH]c4cc(F)ccc4c23)CCO1 (stereo not drawn) [LL1_0014]
[2]; compound at 1 mM
  displacement of the ADPr-conjugated peptide (off-target activity): 50%
[3]; [9]
  1-BDC: 0.11
[3]; [15]
  Modeled?: TRUE
[3]; crystal soaking of Mac1
  Refined occupancy: 22
[3]
  HIT*: Y
[4]; [10]
  IC50: 16 to 29 µM and 16.4 to 28.7 µM
[4]; HTRF, read-out: IC50
  IC50: 16.4 µM and 28.7 µM
[4]; [14]
  Ki: 14.3 µM and 25 µM
[5]; compound at 1 mM
  displacement of the ADPr-conjugated peptide (off-target activity): 50%
[8]
  Spearman est (compound concentration vs apparent Tm): 0.91
  DSF max dTma: 3.21 ˚C

## Cc1nnc2n1CC(C(=O)O)N(C(=O)c1ccc(NC(=O)NC3CC3)cc1)C2 (stereo not drawn) [Z8539_0037, 8539_0037]
[7]
  DSF max dTma: 2.36 °C

## CC1CC(C(=O)O)N1C(=O)c1cc(O)nc2ccc(F)cc12.O=C(O)C(F)(F)F (stereo not drawn) [R0658, REAL300007260658]
[7]
  DSF max dTma: 0.37 °C

## CC1(C)CCC(C(=O)O)CN1C(=O)c1ncnc2[nH]ccc12 (stereo not drawn) [F2804, FRESH00012962804]
[7]
  DSF max dTma: 0.62 °C
